Experimental data as given in US6287827A, “Halo- or hydroxy-substituted nocathiacin antibiotics” (Bristol-Myers Squibb Company, priority 2000, dated 2001).
In brackets after ≈: the same amount, converted by molar mass.

Tests used:
Experiment in all cases: MIC, conventional serial broth dilution assay in nutrient broth (Difco)
Type in all cases: cell-based
[1] = tested on: Streptococcus pneumoniae/penicillin resistant A28272
[2] = tested on: Staphylococcus epidermidis A24548
[3] = tested on: Streptococcus pneumoniae/penicillin intermediate A27881
[4] = tested on: Staphylococcus aureus/QC/ATCC #29213 A24407; conditions: ATCC29213
[5] = tested on: Staphylococcus haemolyticus A27298
[6] = tested on: Moraxella catarrhalis/β-lactamase positive A22344
[7] = tested on: Staphylococcus aureus/β-lactamase positive A15090
[8] = tested on: Enterococcus faecalis A27519
[9] = tested on: Enterococcus faecalis A20688
[10] = tested on: Staphylococcus aureus/homo methicillin resistant A27223
[11] = tested on: Enterococcus avium A27456
[12] = tested on: Enterococcus faecium A24885
[13] = tested on: Moraxella catarrhalis/β-lactamase positive A25409
[14] = tested on: Streptococcus pneumoniae A9585
[15] = tested on: Staphylococcus aureus/Thiostrep. Res/Mutant A9497
[16] = tested on: Haemophilus influenzae/β-lactamase positive A21515
[17] = tested on: Bacillus subtilis/Thiostrep. Res/Mutant A9506A
[18] = tested on: Staphylococcus aureus/209P/ATCC #6538P A9497
[19] = tested on: Bacillus subtilis/ATCC #6633 A9506A; conditions: ATCC6633
[20] = tested on: Haemophilus influenzae/β-lactamase negative A20191
[21] = Staphylococcus aureus A15090 + 50% calf serum
[22] = Staphylococcus aureus/β-lactamase positive A15090
[23] = A20688, Enterococcus faecalis A20688
[24] = A20688, Enterococcus faecalis A20688 +50% calf serum
[25] = Staphylococcus aureus A27223 + 50% calf serum
[26] = Staphylococcus aureus/homo methicillin resistant A27223

Compound | MIC [1] [µg/mL] | MIC [2] [µg/mL] | MIC [3] [µg/mL] | MIC [4] [µg/mL] | MIC [5] [µg/mL] | MIC [6] [µg/mL] | MIC [7, 21] [µg/mL] | MIC [7, 22] [µg/mL] | MIC [9, 23] [µg/mL] | MIC [9, 24] [µg/mL] | MIC [10, 25] [µg/mL] | MIC [10, 26] [µg/mL] | MIC [12] [µg/mL] | MIC [14] [µg/mL] | further results
C=C(NC(=O)c1csc(-c2nc3c(cc2O)-c2nc(cs2)C(=O)NC(C(C)O)C(=O)NC(=C(C)OC)c2nc(cs2)C(=O)NC2c4nc(cs4)C(=O)NC(COC(=O)c4c5c6c(c(F)ccc6n4O)COC(=O)C(OC4CC(C)(O)C(N(C)C)C(C)O4)C2OC5)c2nc-3cs2)n1)C(N)=O (stereo not shown) [5-Fluoronocathiacin, 5-fluoronocathiacin] | ≤ 0.002 | 0.007 (≈ 4.81 nM) | ≤ 0.002 | 0.125 (≈ 85.9 nM) | 0.003 (≈ 2.06 nM) | 0.06 (≈ 41.2 nM) | 0.125 | 0.125 (≈ 85.9 nM) | 0.25 (≈ 172 nM) | 0.25 (≈ 172 nM) | 0.003 | 0.003 (≈ 2.06 nM) | 0.25 (≈ 172 nM) | ≤ 0.002 | MIC [8]: 0.25 µg/mL (≈ 172 nM); MIC [11]: 0.25 µg/mL (≈ 172 nM); MIC [13]: 0.06 µg/mL (≈ 41.2 nM)
C=C(NC(=O)c1csc(-c2nc3c(cc2O)-c2nc(cs2)C(=O)NC(C(C)O)C(=O)NC(=C(C)OC)c2nc(cs2)C(=O)NC2c4nc(cs4)C(=O)NC(COC(=O)c4c5c6c(cc(F)cc6n4O)COC(=O)C(OC4CC(C)(O)C(N(C)C)C(C)O4)C2OC5)c2nc-3cs2)n1)C(N)=O (stereo not shown) [6-Fluoronocathiacin, 6-fluoronocathiacin] | < 0.0005 | 0.004 (≈ 2.75 nM) | < 0.0005 | 0.002 (≈ 1.37 nM) | 0.004 (≈ 2.75 nM) | 0.25 (≈ 172 nM) | 0.015 | 0.002 (≈ 1.37 nM) | < 0.001 | 0.015 (≈ 10.3 nM) | 0.015 | 0.002 (≈ 1.37 nM) | 0.004 (≈ 2.75 nM) | < 0.0005 | MIC [15]: 16 µg/mL (≈ 11000 nM); MIC [16]: > 16 µg/mL; MIC [17]: > 32 µg/mL; MIC [18]: 0.002 µg/mL (≈ 1.37 nM); MIC [19]: 0.002 µg/mL (≈ 1.37 nM); MIC [20]: > 16 µg/mL
